Where a name gives a salt, the structure may show the parent alone. Starred links: 1 amine or outer side, 2 acyl side, 3 side chain; linkers in the order of their positions; H or OH if unused. Positions of bridges follow the written chain, without caps; N, C: chain ends. Non-standard residues stand in square brackets, D forms with d. Residues, ends and D or L forms follow the SMILES beside them. Chains are numbered I, II in the order given. Actinocin(9to1) = Cc1c2oc3c(C)ccc(C(=O)[*:1])c3nc-2c(C(=O)[*:2])c(N)c1=O; NMeV = CN[C@H](C(=O)O)C(C)C; Sar = CNCC(=O)O
What follows are molecules tested on relapsed AML cells (assay: Drug sensitivity assay, 1,536-well, 3-day culture with individual approved drugs at 10 μM, viability by alamarBlue). Conditions: not given.
Format: cell-based, human
Protocol: Drug sensitivity assays were performed using a 1,536-well platform where all cells and reagents were deposited in wells using an acoustic liquid handling unit that is highly accurate for dispensing of nanoliter volumes of liquid. […] After dispensing the cells into the wells, an independent drug at a known concentration is added to each well and incubated with the cells. After three days, the percentage of live cells in each well is determined to assess the killing efficiency of each compound. […] Cell viability assays are known to those of skill in the art. See, for example, Pemovska et al., Individualized systems medicine strategy to tailor treatments for patients with chemorefractory acute myeloid leukemia. Cancer Discovery 3:1416-1429, 2013; Pabst et al., Identification of small molecules that support human leukemia stem cell activity ex vivo. Nature Methods 11:436-442, 2014; Baccelli et al., A novel approach for the identification of efficient combination therapies in primary human acute myeloid leukemia specimens. Blood Cancer Journal 7:e529, 2017. In studies described herein, the 1,536-well format was utilized, which allowed for use of four times fewer cells as well as less drug and media components due to the small assay volume of 5 microliters. […] Other compounds like CellTiter-Glo (Promega, Madison, Wis.) are equally appropriate reagents for determining cell viability.
Conditions for the drug screening assays were as described in Pabst et al., Identification of small molecules that support human leukemia stem cell activity ex vivo, Nature Methods 11:436-442, 2014). Using this protocol, cells were cultured in Iscove's Modified Dulbecco's Medium (IMDM), 15% BIT (bovine serum albumin, insulin, transferrin; Stem Cell Technologies 09500 (Vancouver, Calif.)), 100 ng/ml SCF (Shenandoah 100-04 (Warwick, Pa.)), 50 ng/ml FLT3L (Shenandoah 100-21), 20 ng/ml IL-3 (Shenandoah 100-80), 20 ng/ml G-CSF (Shenandoah 100-72), 10^-4 M β-mercaptoethanol, gentamicin (50 μg/ml) and ciprofloxacin (10 μg/ml).
Cells were removed from liquid nitrogen and placed in a 37° C. bath, just until thawed. For 1,536-well screens utilizing 6,000 wells about 100 million cells were thawed. The volume was doubled with pre-warmed culture media and placed on ice for about one to two minutes. The cells were brought to a final volume of about 8 to 10 mL before spinning down at 1,100 rpm for 5 min at 10° C. The pelleted cells were resuspended in 10 mL of culture media and plated in a tissue-culture treated T75 flask at a density of 1 to 2 million cells/ml. The cells were cultured overnight prior to fluorescence-activated cell sorting of viable cells on the following day.
After cells were cultured overnight, a cell scraper was used to remove any cells that adhered to the plastic. The cells were gently pipetted up and down to break up aggregates. Then, the entire volume was transferred to a 50 mL conical tube through a 70 micron cell strainer to remove cell clumps. The T75 flask was rinsed and scraped with about 10 mL HBSS and transferred to the same 50 mL conical tube through the strainer. The harvested cells were spun down at 1,100 rpm for 5 min at 10° C. The cells were then resuspendd in about 300-500 microliters FACS buffer (HBSS+2% FBS+1× propidium iodide) and transferred to a FACS tube. The tube was placed on ice and viable cells that are forward- and side-scatter gated on viable myeloid blasts were sorted by FACS (the scatter gate should exclude small lymphocytes, large myeloid cells, and debris). After sorting the required number of viable cells, the cells were spun down at 1,100 rpm for 5 min at 10° C. and subsequently resuspended at 4,000-4,500 cells per 5 microliter volume of complete culture media with growth factors and penicillin/streptomycin.

Point of comparison: `COC(=O)C1=C(C)NC(C)=C(C(=O)OCCCN2CCC(c3ccccc3)(c3ccccc3)CC2)[C@H]1c1cccc([N+](=O)[O-])c1` [NIGULDIPINE], “#Cases >70% cell death” value 12. Against it:
- O=C(O)C1[O][Sb]2[O]C(=O)C([O]2)C(C(=O)O)[O][Sb]2[O]C(=O)C1[O]2 (stereo not shown) [ANTIMONY POTASSIUM TARTRATE TRIHYDRATE] — lower, 3

Same assay, conditions: number of relapsed AML cases out of 18 tested with >70% cell death; 10 μM, 3-day culture

Point of comparison: `Cc1cnc(C(=O)O)c[n+]1[O-]` [ACIPIMOX], “#Cases >70% cell death” value 1. Against it:
- O=C(/C=C/c1cccc(S(=O)(=O)Nc2ccccc2)c1)NO [BELINOSTAT] — the same, 1
- CC[C@]1(O)C[C@@H]2CN(CCc3c([nH]c4ccccc34)[C@@](C(=O)OC)(c3cc4c(cc3OC)N(C)[C@H]3[C@@](O)(C(N)=O)[C@H](O)[C@]5(CC)C=CCN6CC[C@]43[C@@H]65)C2)C1 — higher, 9
- CCCCOc1cc(C(=O)OCCN(CC)CC)ccc1N [BENOXINATE] — higher, 5
- Fc1ccc(C(c2ccc(F)cc2)N2CCN(C/C=C/c3ccccc3)CC2)cc1 [FLUNARIZINE] — higher, 3
- CN1CCc2c(c3ccccc3n2Cc2ccccc2)C1 [MEBHYDROLIN] — the same, 1
- COc1ccc(F)c(F)c1C(=O)c1cnc(NC2CCN(S(C)(=O)=O)CC2)nc1N [R-547] — higher, 18
- CC(C)OC(=O)C(C)(C)Oc1ccc(C(=O)c2ccc(Cl)cc2)cc1 [FENOFIBRATE] — higher, 3
- CC(C)(C)c1nc(-c2cccc(NS(=O)(=O)c3c(F)cccc3F)c2F)c(-c2ccnc(N)n2)s1 [DABRAFENIB] — higher, 4
- OC(Cn1cncn1)(Cn1cncn1)c1ccc(F)cc1F [FLUCONAZOLE] — the same, 1
- O=C(Nc1cccnn1)N1CCC(=Cc2cccc(Oc3ccc(C(F)(F)F)cn3)c2)CC1 [PF-4457845] — the same, 1
- C[C@@]1(C(=O)Nc2ccc(F)nc2)CCCN1c1nc(Nc2cc(C3CC3)n[nH]2)c2cccn2n1 [BMS-754807] — the same, 1
- C[C@H]1COc2c(C3(N)CC3)c(F)cc3c(=O)c(C(=O)O)cn1c23 [PAZUFLOXACIN] — the same, 1
- COc1cccc2c1C(=O)c1c(O)c3c(c(O)c1C2=O)C[C@@](O)(C(=O)CO)C[C@@H]3O[C@H]1C[C@H](N)[C@H](O)[C@H](C)O1 [DOXORUBICIN] — higher, 18
- COc1ccc2c(c1)[nH]c1c(C)nccc12 [HARMINE] — higher, 3
- C[C@@H]1C[C@H]2[C@@H]3CCC4=CC(=O)C=C[C@]4(C)[C@@]3(F)[C@@H](O)C[C@]2(C)[C@@]1(O)C(=O)CO [DEXAMETHASONE] — higher, 2
- COc1cc2ncnc(Nc3ccc(F)c(Cl)c3)c2cc1OCCCN1CCOCC1 [GEFITINIB] — higher, 2
- COc1cc(NC(C)CCCN)c2ncccc2c1 (stereo not shown) [PRIMAQUINE] — higher, 12
- CCCCCCc1ccc(O)cc1O.Nc1c2ccccc2nc2ccccc12 [ACRISORCIN] — higher, 18
- CCCCCCCCCCCCCCCC[N+](C)(C)CCN(Cc1ccc(OC)cc1)c1ncccn1 [THONZONIUM BROMIDE] — higher, 18
- CS(=O)(=O)N1CCc2c(-c3cnc(N)nc3)nc(N3CCOCC3)nc21 [CH5132799] — higher, 3
- CC[C@@H](C(=O)[C@@H](C)[C@@H](O)[C@H](C)[C@@H]1O[C@@H]([C@@H](CC)C(=O)O)CC[C@@H]1C)[C@H]1O[C@]2(C=C[C@@H](O)[C@]3(CC[C@@](C)([C@H]4CC[C@](O)(CC)[C@H](C)O4)O3)O2)[C@H](C)C[C@@H]1C [SALINOMYCIN] — higher, 10
- CCn1cc(C(=O)O)c(=O)c2cnc(N3CCCC3)nc21 [PIROMIDIC ACID] — higher, 5
- Cc1cc(Nc2nc(N[C@@H](C)c3ncc(F)cn3)ncc2Cl)[nH]n1 [AZD-1480] — higher, 12
- NONOXYNOL-9 — higher, 2
- CCn1cc(-c2ccnc3[nH]c(-c4cccc(CN(C)C)c4)cc23)c(-c2ccc(NC(=O)N(C)C)cc2)n1 [GSK1070916] — higher, 11
- CCCCN(CCCC)CCCOC(=O)c1ccc(N)cc1 [BUTACAINE] — the same, 1
- CCN(CC)CCOCCOC(=O)C(CC)(CC)c1ccccc1.O=C(O)CC(O)(CC(=O)O)C(=O)O [OXELAIDIN CITRATE] — higher, 2
- COc1cc2c(Nc3ccc(Br)cc3F)ncnc2cc1OCC1CCN(C)CC1 [VANDETANIB] — the same, 1
- O=C(O)[C@]1(Cc2cccc(Nc3nccs3)n2)CC[C@@H](Oc2cccc(Cl)c2F)CC1 [VX-689 (MK5108)] — the same, 1
- COC(=O)Nc1nc2ccc(C(=O)c3ccccc3)cc2[nH]1 [MEBENDAZOLE] — higher, 5
- Cc1[nH]c2ccccc2c1CCNCc1ccc(/C=C/C(=O)NO)cc1 [PANOBINOSTAT] — the same, 1
- Cc1c2oc3c(C)ccc(C(=O)N[C@@H]4C(=O)N[C@H](C(C)C)C(=O)N5CCC[C@H]5C(=O)N(C)CC(=O)N(C)[C@@H](C(C)C)C(=O)O[C@@H]4C)c3nc-2c(C(=O)N[C@@H]2C(=O)N[C@H](C(C)C)C(=O)N3CCC[C@H]3C(=O)N(C)CC(=O)N(C)[C@@H](C(C)C)C(=O)O[C@@H]2C)c(N)c1=O [DACTINOMYCIN] (I: T[dV]P[Sar][NMeV] / II: T[dV]P[Sar][NMeV]; ester I:1-I:C, II:1-II:C; linker I:N-II:N via Actinocin(9to1)) — higher, 17
- C[n+]1cc2c3c(ccc2c2ccc4cc5c(cc4c21)OCO5)OCO3 [SANGUINARIUM CHLORIDE] — higher, 18
- CCCCNc1ccc(C(=O)OCCN(C)C)cc1 [TETRACAINE] — higher, 12
- CN1CCOC(c2ccccc2)c2ccccc2C1 (stereo not shown) [NEFOPAM] — higher, 2
- C=CC(N)CCC(=O)O (stereo not shown) [VIGABATRIN] — higher, 13
- CC(C)Oc1ccc(C(=O)N[C@H](CNC(=O)CN(C)C)Cc2ccc(-c3cn4cccc([C@H](C)O)c4n3)cc2)cc1Cl [GSK923295] — higher, 8
- Cc1ccc(Nc2nccc(N(C)c3ccc4c(C)n(C)nc4c3)n2)cc1S(N)(=O)=O [PAZOPANIB] — higher, 4
- O=C(CCCCCCC(=O)Nc1cccnc1)NO [PYROXAMIDE] — higher, 15
- CC(C)[C@H](N)C(=O)OCCOCn1cnc2c(=O)[nH]c(N)nc21 [VALACICLOVIR] — the same, 1
- CCCOc1cc(N)ccc1C(=O)OCCN(CC)CC [PROPOXYCAINE HYDROCHLORIDE] — the same, 1
- CC(C)(C)c1[nH]cnc1/C=c1\[nH]c(=O)/c(=C/c2ccccc2)[nH]c1=O [PLINABULIN] — higher, 12
- CCC(=O)O[C@]1(C(=O)SCF)[C@H](C)C[C@H]2[C@@H]3C[C@H](F)C4=CC(=O)C=C[C@]4(C)[C@@]3(F)[C@@H](O)C[C@@]21C [FLUTICASONE PROPIONATE] — higher, 3
- CC(C)C[C@H](NC(=O)[C@H](Cc1ccccc1)NC(=O)c1cnccn1)B(O)O [BORTEZOMIB] — higher, 18
- COc1cc(C(=O)OCCCN2CCCN(CCCOC(=O)c3cc(OC)c(OC)c(OC)c3)CC2)cc(OC)c1OC [DILAZEP DIHYDROCHLORIDE] — higher, 2
- O=C(O)c1ccccc1C(=O)Nc1ccc(S(=O)(=O)Nc2nccs2)cc1 [PHTHALYLSULFATHIAZOLE] — the same, 1
- O=C1c2c(O)ccc(O)c2C(=O)c2c(NCCNCCO)ccc(NCCNCCO)c21 [MITOXANTRONE] — higher, 18
- COc1cc([C@@H]2c3cc4c(cc3[C@@H](O[C@@H]3O[C@@H]5CO[C@@H](C)O[C@H]5[C@H](O)[C@H]3O)[C@H]3COC(=O)[C@H]23)OCO4)cc(OC)c1O [ETOPOSIDE] — higher, 5
- C[C@@H](NCCCc1cccc(C(F)(F)F)c1)c1cccc2ccccc12 [AMG-073 HCL] — the same, 1
- Cc1cc(CC(C)CC(C)(C)C)n(O)c(=O)c1.NCCO (stereo not shown) [PIROCTONE OLAMINE] — higher, 13
- Clc1ccc(CCC(Cn2ccnc2)Sc2c(Cl)cccc2Cl)cc1 (stereo not shown) [BUTOCONAZOLE] — the same, 1
- CN(C)CCCOc1nn(Cc2ccccc2)c2ccccc12 [BENZYDAMINE] — higher, 4

— patent US20210405025A1, “IDENTIFYING COMPOUNDS FOR TREATING CANCER AND USE THEREOF” (THE UAB RESEARCH FOUNDATION, priority 2018, published 2021)
